Data set [1] in a line: In-vitro drug release / drug entrapment efficiency in PBS by UV spectroscopy at 278 nm. The data set is classed as physicochemical. How it is done:
30 mg of CHL-loaded nanoparticles were dispersed and homogenized in 100 mL of PBS, pH 7.4 (purchased from Sigma Aldrich) which releases all entrapped CHL from the nanocomposite. Before homogenization, nanocomposite formulation was cleared from free drug molecules by washing with distilled water. Ultraviolet (UV) spectroscopy at a wavelength of 278 nm was employed for completely developing entire content of entrapped chloramphenicol in triplicates. A solution of drug-free nanocomposite (30 mg) in distilled water was employed as a reference, thus reducing the chances of interference by excipients and polymer used to prepare the nanocomposite. Following equation was utilized to evaluate drug entrapment efficiency (DEE) value, as was reported in a paper by Harilall S, Choonara Y E. et al. %DEE=D1/D2*100 Where D1 is the actual quantity of drug (mg/100 mL) and D2 is the theoretical quantity of drug (mg/100 mL) entrapped within the formulation. Precision of the results was made certain by calculating the average DEE of five samples.
An in-vitro drug release study was conducted on the basis of a paper reported by Harilall S, Choonara Y E. et al. for the zidovudine release study. CHL-loaded nanocomposite, nanocomposite and commercially available CHL were submerged in 100 mL PBS discretely and then sited these set of preparations in an orbital shaking incubator (20 rpms, 37° C.). Portions of these preparations were taken at altered time interims for 48 hours and substituted by equal quantities of buffer solution and were evaluated by UV spectroscopy for CHL absorption at a wavelength of 278 nm.

In a further data set the test system is Gram positive sarccina. The data set can be described thus: Anti-bacterial activity, agar well zone of inhibition. The format is cell-based. Conditions: 50 μL of 5 mg/mL suspension in 0.4 cm wells, 37° C. for 48 hours. How it is done: (§1) Nutrient broth was prepared by dissolving 0.2 g in 25 mL distilled water in erlenmeyer flask. The flask was then sterilized in an autoclave at the 121° C. for 15 minutes after applying cotton plug to cover its mouth. This growth media was utilized to prepare inoculums of all strains of bacteria. After adding a loop full of bacterial strain in it, the flask was placed in shaking incubator at 37° C. for the night. The plates were inoculated after the incubated broth was diluted up to 10^−2.
(§2) 0.8 g nutrient broth and 2 g of agar were added to 100 mL autoclaved water in an erlenmeyer flask. Apply cotton plug to the flask and then sterilize it in an autoclave at the 121° C. for 15 minutes. Each petri plate was poured with 15-20 mL of agar which was then solidified and inoculated with the bacterial strain. 50 μL of sample suspension was poured in wells that have the diameter of 0.4 cm. All sample suspensions were made by adding 5 mg of product in 1 mL distilled water. Zones of inhibition were observed after keeping these plates at 37° C. for 48 hours.

Data set [2] concerns Gram positive cocci (Separate). The description is as above. Conditions: 48 h. The data set is classed as cell-based. How it is done: as §1, §2
Data set [3] concerns Gram positive Streptococci. The data set is described as above. The following applies: 50 μL of 5 mg/mL suspension in 0.4 cm wells, 37° C. for 48 hours. The format is cell-based. On the procedure: as §1, §2

By zone of inhibition is commonly meant the extent of the growth-free halo in a diffusion test. Turning to `O=C(N[C@H](CO)[C@H](O)c1ccc([N+](=O)[O-])cc1)C(Cl)Cl` [CHL, chloramphenicol], in data set [1] (PBS), the “Time in which almost the whole drug is released” value was in the range of 3 to 4 h. Besides, the “DEE (FIG. 7, in-vitro drug release)” value in data set [1] (first hour of exposure to PBS, 37° C.) was 91%; in data set [1] (fourth hour in PBS (third of the next three hours)), 97%; in data set [1] (second hour in PBS (first of the next three hours)), 94%; in data set [1] (third hour in PBS (second of the next three hours)) it was 97%. The zone of inhibition at 5000 µg/mL with Gram positive sarccina was 2 mm; in data set [2], 4 mm; in data set [3] it was 6 mm.

These data come from patent US9393313B2, “Drug entrapment efficiency and sustained drug release of chloramphenicol loaded polymeric-iron nanoparticles” (priority 2014, dated 2016).
